Reference: ChEMBL document CHEMBL3885881, “DrugMatrix”

Organism: Rattus norvegicus
Experiment: DrugMatrix - Regimen: Daily Repeat
Format: toxicity, organism-based, Sprague-Dawley
Set-up: regimen Daily Repeat, gender Male, age 6-8 weeks
Details: in vivo, po, […], route oral GAVAGE, vehicle 100 % WATER; for ALANINE AMINOTRANSFERASE / ALBUMIN / ALKALINE PHOSPHATASE / ASPARTATE AMINOTRANSFERASE / BLOOD UREA NITROGEN / CARBON DIOXIDE / CHLORIDE / CHOLESTEROL / CREATINE PHOSPHOKINASE / CREATININE / GLUCOSE / LACTATE DEHYDROGENASE / LIPASE / PHOSPHORUS / POTASSIUM / SODIUM / TOTAL BILIRUBIN / TOTAL PROTEIN / URIC ACID: tissue Plasma; for ABSOLUTE BASOPHIL / ABSOLUTE EOSINOPHIL / ABSOLUTE LYMPHOCYTE / ABSOLUTE MONOCYTE / ABSOLUTE SEGMENTED NEUTROPHIL / BASOPHIL / EOSINOPHIL / ERYTHROCYTE COUNT / HEMATOCRIT / HEMOGLOBIN / LEUKOCYTE COUNT / LYMPHOCYTE / MEAN CORPUSCULAR HEMOGLOBIN / MEAN CORPUSCULAR HEMOGLOBIN CONCENTRATION / MEAN CORPUSCULAR VOLUME / MONOCYTE / NEUTROPHIL / NUCLEATED RED BLOOD CELLS / PLATELET COUNT: tissue Blood
[1] = 72 h, dose 0.025 mg/Kg, dose level Low, time 3 day
[2] = 72 h, dose 0.25 mg/Kg, dose level High, time 3 day
[3] = 120 h, dose 0.025 mg/Kg, dose level Low, time 5 day
[4] = 120 h, dose 0.25 mg/Kg, dose level High, time 5 day

SMILES: C[C@@H]1C[C@@H]([C@H](O)CC2CC(=O)NC(=O)C2)C(=O)[C@@H](C)C1 [CYCLOHEXIMIDE]
- ALANINE AMINOTRANSFERASE [1]: 59.67 u/L
- ALBUMIN [1]: 4.1 G/DL
- ALKALINE PHOSPHATASE [1]: 369.67 u/L
- ASPARTATE AMINOTRANSFERASE [1]: 107.33 u/L
- BLOOD UREA NITROGEN [1]: 15.67 mg/dL
- CARBON DIOXIDE [1]: 31 mmol/L
- CHLORIDE [1]: 102 MEQ/L
- CHOLESTEROL [1]: 69 mg/dL
- CREATINE PHOSPHOKINASE [1]: 1055 u/L
- CREATININE [1]: 0.22 mg/dL
- GLUCOSE [1]: 164 mg/dL
- LACTATE DEHYDROGENASE [1]: 240.33 u/L
- LIPASE [1]: 9 u/L
- PHOSPHORUS [1]: 12.27 mg/dL
- POTASSIUM [1]: 6.52 MEQ/L
- SODIUM [1]: 142.17 MEQ/L
- TOTAL BILIRUBIN [1]: 0.23 mg/dL
- TOTAL PROTEIN [1]: 5.63 G/DL
- URIC ACID [1]: 1.8 mg/dL
- ALANINE AMINOTRANSFERASE [2]: 45 u/L
- ALBUMIN [2]: 3.43 G/DL
- ALKALINE PHOSPHATASE [2]: 376.67 u/L
- ASPARTATE AMINOTRANSFERASE [2]: 77 u/L
- BLOOD UREA NITROGEN [2]: 14.33 mg/dL
- CARBON DIOXIDE [2]: 34.33 mmol/L
- CHLORIDE [2]: 101.33 MEQ/L
- CHOLESTEROL [2]: 48.67 mg/dL
- CREATINE PHOSPHOKINASE [2]: 345.33 u/L
- CREATININE [2]: 0.17 mg/dL
- GLUCOSE [2]: 154.33 mg/dL
- LACTATE DEHYDROGENASE [2]: 99 u/L
- LIPASE [2]: 8 u/L
- PHOSPHORUS [2]: 12.1 mg/dL
- POTASSIUM [2]: 7.04 MEQ/L
- SODIUM [2]: 141.27 MEQ/L
- TOTAL BILIRUBIN [2]: 0.23 mg/dL
- TOTAL PROTEIN [2]: 4.67 G/DL
- URIC ACID [2]: 1.33 mg/dL
- ABSOLUTE BASOPHIL [3]: 0 CELLS/uL
- ABSOLUTE EOSINOPHIL [3]: 0 CELLS/uL
- ABSOLUTE LYMPHOCYTE [3]: 7936.67 CELLS/uL
- ABSOLUTE MONOCYTE [3]: 68.67 CELLS/uL
- ABSOLUTE SEGMENTED NEUTROPHIL [3]: 628 CELLS/uL
- BASOPHIL [3]: 0%
- EOSINOPHIL [3]: 0%
- ERYTHROCYTE COUNT [3]: 5.73 x10E6/uL
- HEMATOCRIT [3]: 34.33%
- HEMOGLOBIN [3]: 13.1 G/DL
- LEUKOCYTE COUNT [3]: 8.63 x10E3/uL
- LYMPHOCYTE [3]: 91.67%
- MEAN CORPUSCULAR HEMOGLOBIN [3]: 22.9 pg
- MEAN CORPUSCULAR HEMOGLOBIN CONCENTRATION [3]: 38.13 G/DL
- MEAN CORPUSCULAR VOLUME [3]: 60.1 fL
- MONOCYTE [3]: 1%
- NEUTROPHIL [3]: 7.33%
- NUCLEATED RED BLOOD CELLS [3]: 0 /100WBC
- PLATELET COUNT [3]: 1317.33 x10E3/uL
- ABSOLUTE BASOPHIL [4]: 0 CELLS/uL
- ABSOLUTE EOSINOPHIL [4]: 26.67 CELLS/uL
- ABSOLUTE LYMPHOCYTE [4]: 7410 CELLS/uL
- ABSOLUTE MONOCYTE [4]: 139.67 CELLS/uL
- ABSOLUTE SEGMENTED NEUTROPHIL [4]: 1057 CELLS/uL
- BASOPHIL [4]: 0%
- EOSINOPHIL [4]: 0.33%
- ERYTHROCYTE COUNT [4]: 5.35 x10E6/uL
- HEMATOCRIT [4]: 32.87%
- HEMOGLOBIN [4]: 12.77 G/DL
- LEUKOCYTE COUNT [4]: 8.63 x10E3/uL
- LYMPHOCYTE [4]: 85%
- MEAN CORPUSCULAR HEMOGLOBIN [4]: 23.83 pg
- MEAN CORPUSCULAR HEMOGLOBIN CONCENTRATION [4]: 38.8 G/DL
- MEAN CORPUSCULAR VOLUME [4]: 61.47 fL
- MONOCYTE [4]: 1.67%
- NEUTROPHIL [4]: 13%
- NUCLEATED RED BLOOD CELLS [4]: 0 /100WBC
- PLATELET COUNT [4]: 1213 x10E3/uL
- ALANINE AMINOTRANSFERASE [3]: 45.33 u/L
- ALBUMIN [3]: 4.03 G/DL
- ALKALINE PHOSPHATASE [3]: 343 u/L
- ASPARTATE AMINOTRANSFERASE [3]: 78 u/L
- BLOOD UREA NITROGEN [3]: 15.33 mg/dL
- CARBON DIOXIDE [3]: 33.33 mmol/L
- CHLORIDE [3]: 102.33 MEQ/L
- CHOLESTEROL [3]: 68.67 mg/dL
- CREATINE PHOSPHOKINASE [3]: 249.67 u/L
- CREATININE [3]: 0.16 mg/dL
- GLUCOSE [3]: 141 mg/dL
- LACTATE DEHYDROGENASE [3]: 124.33 u/L
- LIPASE [3]: 9 u/L
- PHOSPHORUS [3]: 11.4 mg/dL
- POTASSIUM [3]: 5.87 MEQ/L
- SODIUM [3]: 146.43 MEQ/L
- TOTAL BILIRUBIN [3]: 0.1 mg/dL
- TOTAL PROTEIN [3]: 5.83 G/DL
- URIC ACID [3]: 0.73 mg/dL
- ALANINE AMINOTRANSFERASE [4]: 54.67 u/L
- ALBUMIN [4]: 3.6 G/DL
- ALKALINE PHOSPHATASE [4]: 291.33 u/L
- ASPARTATE AMINOTRANSFERASE [4]: 78 u/L
- BLOOD UREA NITROGEN [4]: 16 mg/dL
- CARBON DIOXIDE [4]: 35.33 mmol/L
- CHLORIDE [4]: 101.5 MEQ/L
- CHOLESTEROL [4]: 65 mg/dL
- CREATINE PHOSPHOKINASE [4]: 253.67 u/L
- CREATININE [4]: 0.15 mg/dL
- GLUCOSE [4]: 135 mg/dL
- LACTATE DEHYDROGENASE [4]: 109 u/L
- LIPASE [4]: 9 u/L
- PHOSPHORUS [4]: 11.9 mg/dL
- POTASSIUM [4]: 6.52 MEQ/L
- SODIUM [4]: 143.55 MEQ/L
- TOTAL BILIRUBIN [4]: 0.1 mg/dL
- TOTAL PROTEIN [4]: 5.03 G/DL
- URIC ACID [4]: 0.73 mg/dL
